Patent US10517889B2, “Modulators of SMAD7 expression” (Ionis Pharmaceuticals, Inc., priority 2017, dated 2019)

Tests used:
human SMAD7 mRNA = experiment: Antisense inhibition of human SMAD7 mRNA expression in Hep3B cells by 3-10-3 cEt gapmers, 10,000 nM, electroporation (Example 2); type: cell-based; settings: Hep3B cells, electroporation with 10,000 nM antisense oligonucleotide, approximately 24 hours, SMAD7 mRNA by RT-PCR (RTS5062), relative to untreated control cells
Method in brief: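 Hep3B cells (20,000 per well) were electroporated with 10,000 nM 16-mer 3-10-3 cEt gapmer (phosphorothioate, 5-methylcytosine). After about 24 h, SMAD7 mRNA was quantified by qRT-PCR with primer probe set RTS5062, normalised to RIBOGREEN total RNA, and expressed as percent inhibition versus untreated cells.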

[1] = Oligonucleotide concentration in liver and colon by LC-MS/MS after subcutaneous administration in CD-1 mice (Example 6); type: in vivo; settings: 50 mg/kg subcutaneously twice a week for 7 weeks, 48 hours after the last dose
Protocol: Groups of 8-9 week old male CD-1 mice were injected subcutaneously twice a week for 7 weeks with 50 mg/kg of Ionis oligonucleotides (100 mg/kg/week dose). Each group contained 4 mice. One group of male CD-1 mice was injected subcutaneously twice a week for 7 weeks with PBS. Plasma was collected for analysis on day 28.
Oligonucleotide concentrations in the liver and colon were analyzed using LC-MS/MS method.

[2] = Body and organ weights after subcutaneous administration in beagle dogs (Example 8); type: in vivo; settings: 30 mg/kg subcutaneous days 1, 3, 5, 8, 15, 22, 29, end of study
Protocol: (§1) There were 4 animals per group.
Body weights as well as kidney, spleen, liver (with gall bladder), mesenteric lymph node, heart, and thymus weights were measured at the end of the study. […] Ionis SMAD7 oligonucleotides that caused any changes in organ weights outside the expected range for antisense oligonucleotides were excluded from further studies.

[3] = Hematology assays after subcutaneous administration in beagle dogs (Example 8); type: in vivo; settings: 30 mg/kg subcutaneous days 1, 3, 5, 8, 15, 22, 29
Protocol: as §1
Blood samples were collected from the cephalic vein or saphenous vein of each animal. About 0.5 mL of blood samples was put into tubes containing the potassium salt of EDTA. Blood obtained from all dog groups was measured using an ADVIA2120i hematology analyzer for measurements of the various blood cells, as well as other hematology markers.

mouse Smad7 mRNA = experiment: Pharmacology: mouse Smad7 mRNA expression in liver, kidney, duodenum, ileum and colon after subcutaneous administration in CD-1 mice (Example 6); type: in vivo; settings: 50 mg/kg subcutaneous twice weekly for 7 weeks, normalized to GAPDH
Method in brief: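 Male CD-1 mice, 8-9 weeks old, got 50 mg/kg oligonucleotide subcutaneously twice weekly (100 mg/kg/week) for 7 weeks, with PBS controls; n=4 per group. At necropsy, Smad7 mRNA in liver, kidney, duodenum, ileum and colon was measured by RT-PCR (probe set HTS7555), normalized to GAPDH; one-way ANOVA with Dunnett's test.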

[4] = Oligonucleotide concentration in tissues by LC-MS/MS after subcutaneous administration in beagle dogs (Example 8); type: in vivo; settings: 30 mg/kg subcutaneous, 48 hours after the last dose
Protocol: as §1
Oligonucleotide concentrations of both ION 830025 and ION 798781 were detected in various tissues by LC-MS/MS analysis. The results are presented below, expressed as μg/g tissue. The data was collected 48 hours after the last dose.

[5] = Hematology assays after oral gavage in CD-1 mice (Example 7); type: in vivo; set-up: RBC: unit not given here; settings: 500 mg/kg oral gavage once daily for 4 weeks
Protocol: Groups of 7-8 week old male CD-1 mice were given an oral gavage dose once daily for 4 weeks of 500 mg/kg of Ionis SMAD7 oligonucleotides. Each group contained 8 mice. One group of male CD-1 mice was administered saline by oral gavage daily.
Blood obtained from all mouse groups was measured by an ADVIA2120i hematology analyzer (Siemens, USA) for measurements of the various blood cells, as well as other hematology markers. None of the Ionis SMAD7 oligonucleotides caused changes in the levels of any of the hematology markers outside the expected range for antisense oligonucleotides.

For “830121 (AGAATCAAGCCCTGGC; 3-10-3 cEt gapmer, further chemistry not given here) [compound 830121]”, the “% Inhibition” value (human SMAD7 mRNA) was 69%, the “Oligonucleotide concentration, Colon” value [1] was 14 μg/g tissue and the “Oligonucleotide concentration, Liver” value [1] was 50 μg/g tissue. For the same substance, the Body weight [2] was 6091 g, the Heart weight [2] was 52.6 g and the Kidney weight [2] was 40.0 g. For the same substance, the Liver weight [2] was 202.0 g, the “Mesenteric LN weight” value [2] was 12.2 g and the Spleen weight [2] was 27.5 g. The Thymus weight [2] was 2.8 g, the Basophils [3] was 0.8% and the Eosinophils [3] was 2.5%. The Hematocrit [3] was 56%, the Hemoglobin [3] was 18.5 g/dL and the Lymphocytes [3] was 30%. It also gave an MCH [3] of 21.7 pg, an MCHC [3] of 32.9 g/dL and an MCV [3] of 66 fL. The Monocytes [3] was 7.7%, the Neutrophils [3] was 59% and the PLT [3] was 249 ^3/μL. The RBC [3] was 8.5 ^6/L, the Reticulocytes [3] was 0.5% and the WBC [3] was 8.2 ^3/μL. The “% inhibition of Smad7 mRNA expression (compared to control), Kidney” value (mouse Smad7 mRNA; kidney) was 0%, the “% inhibition of Smad7 mRNA expression (compared to control), Liver” value (mouse Smad7 mRNA; liver) was 24% and the “Full length oligonucleotide, Distal colon” value ([4]; distal colon) was 20 µg/g. For the same substance, the “Full length oligonucleotide, Duodenum” value ([4]; duodenum) was 26 µg/g, the “Full length oligonucleotide, Ileum” value ([4]; ileum) was 26 µg/g and the “Full length oligonucleotide, Kidney” value ([4]; kidney) was 1468 µg/g. The “Full length oligonucleotide, Liver” value ([4]; liver) was 443 µg/g, the “Full length oligonucleotide, Proximal colon” value ([4]; proximal colon) was 19 µg/g and the Basophils [5] was 0.01 10^3/μL. The Eosinophils [5] was 0.08 10^3/μL, the Hematocrit [5] was 51.8% and the Hemoglobin [5] was 15.1 g/dL. It also gave a Lymphocytes [5] of 81.7%, an MCH [5] of 15.0 pg and an MCHC [5] of 29.1 g/dL. The MCV [5] was 51.6 fL, the Monocytes [5] was 0.15 10^3/μL and the Neutrophils [5] was 11.6%. The RBC [5] was 10.0, the Reticulocytes [5] was 3.0% and the WBC [5] was 4.1 10^3/μL. For the same substance, the platelets [5] was 1170 10^3/μL.
